Assay results published in patent US8067419B2, “Piperazines as antimalarial agents” (Actelion Pharmaceuticals Ltd., priority 2005, dated 2011).

Each compound was assayed on P. falciparum K1 (assay: Plasmodium falciparum in vitro assay ([3H] hypoxanthine incorporation)). Conditions: 72 h, erythrocytic stages of P. falciparum K1 (strain resistant to chloroquine and pyrimethamine), human red cells, 48 h + 24 h with [3H] hypoxanthine.
Type: cell-based
Experimental: In vitro activity against erythrocytic stages of P. falciparum is determined using a [^3H] hypoxanthine incorporation assay. One strain resistant to chloroquine and pyrimethamine (P. falciparum K1) is used in the assays, and all test compounds are compared for activity with the standard drugs chloroquine (sigma C6628) and artemisinin (sigma-36, 159-3). Compounds are diluted in DMSO to 1 mM and added to parasite cultures incubated in RPMI 1640 medium without hypoxanthine, supplemented with HEPES (5.94 g/L), NaHCO3 (2.1 g/L), neomycin (100 U/mL), Albumax (5 g/L) and washed human red cells at 2.5% haematocrit (0.3% parasitaemia). Seven serial doubling dilutions of each drug are prepared in 96-well microtitre plates and incubated in a humidifying atmosphere at 37° C.; 4% CO2, 3% O2, 93% N2.
After 48 hours, 50 μl of [^3H] hypoxanthine (0.5 μCi) is added to each well of a plate. The plates are incubated for a further 24 hours under the same conditions. The plates are then harvested with a Betaplate cell harvester (Wallac) and washed with distilled water. The dried filters are inserted into a plastic foil with 10 mL of scintillation fluid, and counted in a Betaplate liquid scintillation counter. IC50 values are calculated from sigmoidal inhibition curves using Microsoft Excel.

First: C[C@@H]1CC[C@H]2[C@@H](C)C(=O)O[C@@H]3O[C@@]4(C)CC[C@@H]1[C@]32OO4 [Artemisinin, artemisinin, reference compound]
Second: COc1ccc(/C=C/C(=O)N(Cc2ccc(OCCCN(C)C)cc2)[C@@H](Cc2ccccc2)C(=O)N2CCN(Cc3ccccc3)CC2)cc1 [Example 43]
The IC50 of the first is 4.2-fold lower: 2 nM for the first, 8.3 nM for the second. The first is the more potent here.

Compared with `CCCCCc1ccc(CN(C(=O)/C=C/c2ccccc2C(F)(F)F)[C@@H](Cc2ccccc2)C(=O)N2CCN(Cc3ccccc3)CC2)cc1` [Example 3, N—[(S)-1-benzyl-2-(4-benzyl-piperazin-1-yl)-2-oxo-ethyl]-N-(4-pentyl-benzyl)-3-(2-trifluoromethyl-phenyl)-acrylamide], `CCCCCc1ccc(CN(C(=O)/C=C/c2cccc(C(F)(F)F)c2)[C@@H](Cc2ccccc2)C(=O)N2CCN(Cc3ccccc3)CC2)cc1` [Example 2, N—[(S)-1-benzyl-2-(4-benzyl-piperazin-1-yl)-2-oxo-ethyl]-N-(4-pentyl-benzyl)-3-(3-trifluoromethyl-phenyl)-acrylamide] is 5.4-fold lower in IC50: 375 nM for the first, 70 nM for the second. The second is the more potent here.

Compared with `CCCCCc1ccc(CN(C(=O)CCc2cc(C(F)(F)F)cc(C(F)(F)F)c2)[C@@H](Cc2ccccc2)C(=O)N2CCN(Cc3ccccc3)CC2)cc1` [Example 6, N—[(S)-1-benzyl-2-(4-benzyl-piperazin-1-yl)-2-oxo-ethyl]-3-(3,5-bis-trifluoromethyl-phenyl)-N-(4-pentyl-benzyl)-propionamide], `CCCCCc1ccc(CN(C(=O)/C=C/c2ccc(C(F)(F)F)cc2)[C@@H](Cc2ccccc2)C(=O)N2CCN(Cc3ccccc3)CC2)cc1` [Example 1, N—[(S)-1-benzyl-2-(4-benzyl-piperazin-1-yl)-2-oxo-ethyl]-N-(4-pentyl-benzyl)-3-(4-trifluoromethyl-phenyl)-acrylamide] is 150-fold lower in IC50: 588 nM for the first, 3.8 nM for the second. The second is the more potent here.

Going from `CCCCCc1ccc(CN(C(=O)/C=C/c2ccc(OC)cc2)[C@@H](Cc2ccccc2)C(=O)N2CCN(Cc3ccccc3)CC2)cc1` [Example 4, N—[(S)-1-benzyl-2-(4-benzyl-piperazin-1-yl)-2-oxo-ethyl]-3-(4-methoxy-phenyl)-N-(4-pentyl-benzyl)-acrylamide] to `CCCCCc1ccc(CN(C(=O)/C=C/c2cccc(OC)c2)[C@@H](Cc2ccccc2)C(=O)N2CCN(Cc3ccccc3)CC2)cc1` [Example 5, N—[(S)-1-benzyl-2-(4-benzyl-piperazin-1-yl)-2-oxo-ethyl]-3-(3-methoxy-phenyl)-N-(4-pentyl-benzyl)-acrylamide], the IC50 rises from 7 nM to 19 nM (2.7-fold).

`CCCCOc1ccc(CN(C(=O)/C=C/c2ccc(OC)cc2)[C@@H](Cc2ccccc2)C(=O)N2CCN(Cc3ccccc3)CC2)cc1` [Example 38] and `CCCCOc1ccc(CN(C(=O)/C=C/c2ccc(C(F)(F)F)cc2)[C@@H](Cc2ccccc2)C(=O)N2CCN(Cc3ccccc3)CC2)cc1` [Example 29, N—[(S)-1-benzyl-2-(4-benzyl-piperazin-1-yl)-2-oxo-ethyl]-N-(4-butoxy-benzyl)-3-(4-trifluoromethyl-phenyl)-acrylamide] are within 1.5-fold of each other in IC50: 11 nM for the first, 7.5 nM for the second.

First: CC(C)Cc1ccc(CN(C(=O)/C=C/c2ccc(C(F)(F)F)cc2)[C@@H](Cc2ccccc2)C(=O)N2CCN(Cc3ccccc3)CC2)cc1 [Example 37]
Second: CCCCc1ccc(CN(C(=O)/C=C/c2ccc(C(F)(F)F)cc2)[C@@H](Cc2ccccc2)C(=O)N2CCN(Cc3ccccc3)CC2)cc1 [Example 33]
The IC50 of the first is 2.6-fold higher: 18 nM for the first, 6.9 nM for the second. The second is the more potent here.

Going from `O=C([C@H](Cc1ccccc1)N(Cc1ccc(N2CCCC2=O)nc1)C(=O)/C=C/c1ccc(C(F)(F)F)cc1)N1CCN(Cc2ccccc2)CC1` [Example 129, N—[(S)-1-benzyl-2-(4-benzyl-piperazin-1-yl)-2-oxo-ethyl]-N-[6-(2-oxo-pyrrolidin-1-yl)-pyridin-3-ylmethyl]-3-(4-trifluoromethyl-phenyl)-acrylamide] to `O=C([C@H](Cc1ccccc1)N(Cc1ccc(-c2ccncc2)nc1)C(=O)/C=C/c1ccc(C(F)(F)F)cc1)N1CCN(Cc2ccccc2)CC1` [Example 125, N—[(S)-1-benzyl-2-(4-benzyl-piperazin-1-yl)-2-oxo-ethyl]-N-[2,4′]bipyridinyl-5-ylmethyl-3-(4-trifluoromethyl-phenyl)-acrylamide], the IC50 falls from 9.5 nM to 4.8 nM (2-fold).

With `CCCCCc1ccc(CN(C(=O)/C=C/c2ccc(C(F)(F)F)cc2)[C@@H](Cc2ccccc2)C(=O)N2CCN(Cc3ccc(C(F)(F)F)nc3)CC2)cc1` [Example 15] the IC50 was 11 nM.
